Experimental data as given in US9914722B2, “Compounds for treating spinal muscular atrophy” (PTC Therapeutics Inc., priority 2012, dated 2018).

Legend:
Smn protein = Smn protein assay (Smn HTRF) in cultured cells; assay type: cell-based, human; details: Homo sapiens, Fibroblast, GM03813 SMA Type 1 patient fibroblasts, 48 hours, HTRF; for maximal fold induction: 7-point concentration data, relative to vehicle, read-out: maximum fold (Fold) increase of Smn protein; for EC (1.5-fold): concentration producing 1.5 times Smn protein vs DMSO vehicle, read-out: EC1.5x for Smn protein expression
Experimental: Smn Protein Assay in Cultured Cells
The Smn HTRF (homogeneous time resolved fluorescence) assay is used to quantify the level of Smn protein in SMA patient fibroblast cells treated with test compounds.
Protocol. Cells are thawed and cultured in DMEM-10% FBS for 72 hours. Cells are trypsinized, counted and re-suspended to a concentration of 25,000 cells/mL in DMEM-10% FBS. The cell suspension is plated at 5,000 cells per well in a 96 well microtiter plate and incubated for 3 to 5 hours. […] Test compounds are serially diluted 3.16-fold in 100% DMSO to generate a 7-point concentration curve. 1 μL of test compound solution is transferred to cell-containing wells and cells are incubated for 48 hours in a cell culture incubator (37° C., 5% CO2, 100% relateive humidity). Triplicate samples are set up for each test compound concentration. After 48 hours, the supernatant is removed from the wells and 25 μL of the RIPA lysis buffer, containing protease inhibitors, is added to the wells and incubated with shaking at room temperature for 1 hour. 25 μL of the diluent is added and then 35 μL of the resulting lysate is transferred to a 384-well plate, where each well contains 5 μL of the antibody solution (1:100 dilution of anti-SMN d2 and anti-SMN kryptate in SMN reconstitution buffer). The plate is centrifuged for 1 minute to bring the solution to the bottom of the wells, then incubated overnight at room temperature. Fluorescence for each well of the plate at 665 nm and 620 nm is measured on an EnVision multilabel plate reader (Perkin-Elmer).
The normalized fluorescence signal is calculated for each sample, Blank and vehicle control well by dividing the signal at 665 nm by the signal at 620 nm. Normalizing the signal accounts for possible fluorescence quenching due to the matrix effect of the lysate. The AF value (a measurement of Smn protein abundance as a percent value) for each sample well is calculated by subtracting the normalized average fluorescence for the Blank control wells from the normalized fluorescence for each sample well, then dividing this difference by the normalized average fluorescence for the Blank control wells and multiplying the resulting value by 100. The ΔF value for each sample well represents the Smn protein abundance from test compound-treated samples. The ΔF value for each sample well is divided by the ΔF value for the vehicle control wells to calculate the fold increase in Smn protein abundance relative to the vehicle control.
For compounds of Formula (I) or a form thereof disclosed herein, Table 9 provides the EC1.5x for Smn protein expression that was obtained from the 7-point concentration data generated for each test compound according to the procedure of Biological Example 7. The term “EC1.5x for Smn protein expression” is defined as that concentration of test compound that is effective in producing 1.5 times the amount of Smn protein in an SMA patient fibroblast cell compared to the amount produced from the DMSO vehicle control. An EC1.5x for Smn protein expression between >3 μM and ≦10 μM is indicated by one star (*), an EC1.5x between >1 μM and ≦3 μM is indicated by two stars (**), an EC1.5x between >0.3 μM and ≦1 μM is indicated by three stars (***) and an EC1.5x≦0.3 μM is indicated by four stars (****).
For compounds of Formula (I) or a form thereof disclosed herein, Table 10 provides the maximum fold (Fold) increase of Smn protein that was obtained from the 7-point concentration data generated for each test compound according to the procedure of Biological Example 7. A maximum fold increase ≦1.2 is indicated by one star (*), a fold increase between >1.2 and ≦1.35 is indicated by two stars (**), a fold increase between >1.35 and ≦1.5 is indicated by three stars (***), a fold increase between >1.5 and ≦1.65 is indicated by four stars (****) and a fold increase >1.65 is indicated by five stars (*****).

[1] = system: full length SMN2 minigene mRNA containing SMN2 exon 7 (SMN2-A minigene); experiment: SMN2 minigene mRNA splicing RT-qPCR assay in cultured cells; assay type: cell-based, human; details: Homo sapiens, HEK293-H; HEK293H cells stably transfected with SMN2-A minigene, 24 hours, 7-point concentration curve; concentration giving 1.5-fold SMN2 full length mRNA vs vehicle; read-out: EC1.5x for production of full length SMN2 mRNA
Experimental: SMN2 Minigene mRNA Splicing RT-qPCR Assay in Cultured Cells
The reverse transcription-quantitative PCR-based (RT-qPCR) assay is used to quantify the level of the full length SMN2 minigene mRNA containing SMN2 exon 7 in a HEK293H cell line stably transfected with said minigene and treated with a test compound.
Protocol. HEK293H cells stably transfected with the SMN2-A minigene construct described above (10,000 cells/well) are seeded in 200 μL of cell culture medium (DMEM plus 10% FBS, with 200 μg/mL hygromycin) in 96-well flat-bottom plates and the plate is immediately swirled to ensure proper dispersal of cells, forming an even monolayer of cells. Cells are allowed to attach for at least 4-6 hours. Test compounds are serially diluted 3.16-fold in 100% DMSO to generate a 7-point concentration curve. A solution of test compound (1 μL, 200× in DMSO) is added to each cell-containing well and the plate is incubated for 24 hours in a cell culture incubator (37° C., 5% CO2, 100% relative humidity). Two replicates are prepared for each test compound concentration. The cells are then lysed in Cells-To-Ct lysis buffer and the lysate is stored at −80° C.
Primer SMN Forward A (SEQ ID NO. 1) hybridizes to a nucleotide sequence in exon 7 (nucleotide 22 to nucleotide 40), primer SMN Reverse A (SEQ ID NO. 2) hybridizes to a nucleotide sequence in the coding sequence of Firefly luciferase, SMN Probe A (SEQ ID NO. 3) hybridizes to a nucleotide sequence in exon 7 (nucleotide 50 to nucleotide 54) and exon 8 (nucleotide 1 to nucleotide 21). The combination of these three oligonucleotides detects only SMN1 or SMN2 minigenes (RT-qPCR) and will not detect endogenous SMN1 or SMN2 genes.
The SMN forward and reverse primers are used at final concentrations of 0.4 μM. The SMN probe is used at a final concentration of 0.15 μM. The GAPDH primers are used at final concentrations of 0.2 μM and the probe at 0.15 μM.
The SMN2-minigene GAPDH mix (15 μL total volume) is prepared by combining 7.5 μL of 2×RT-PCR buffer, 0.4 μL of 25×RT-PCR enzyme mix, 0.75 μL of 20×GAPDH primer-probe mix, 4.0075 μL of water, 2 μL of 10-fold diluted cell lysate, 0.06 μL of 100 μM SMN forward primer, 0.06 μL of 100 μM SMN reverse primer, and 0.225 μL of 100 μM SMN probe.
PCR is carried out at the following temperatures for the indicated time: Step 1: 48° C. (15 min); Step 2: 95° C. (10 min); Step 3: 95° C. (15 sec); Step 4: 60° C. (1 min); then repeat Steps 3 and 4 for a total of 40 cycles.
Each reaction mixture contains both SMN2-A minigene and GAPDH primers/probe sets (multiplex design), allowing simultaneous measurement of the levels of two transcripts.
Two SMN spliced products are generated from the SMN2 minigene. The first spliced product containing exon 7, corresponding to SMN2 full length mRNA, is referred to herein using the term “SMN2 minigene FL.” The second spliced product lacking exon 7 is referred to herein using the term “SMN2 minigene Δ7.”
The increase of SMN2 minigene FL mRNA relative to that in cells treated with vehicle control is determined from real-time PCR data using a modified ΔΔCt method (as described in Livak and Schmittgen, Methods, 2001, 25:402-8). The amplification efficiency (E) is calculated from the slope of the amplification curve for SMN2 minigene FL and GAPDH mRNA individually. The abundance of SMN2 minigene FL and GAPDH mRNA are then calculated as (1+E)^−Ct, where Ct is the threshold value for each amplicon. The abundance of SMN2 minigene FL is normalized to GAPDH abundance. The normalized SMN2 minigene FL abundance from test compound-treated samples is then divided by normalized SMN2 minigene FL abundance from vehicle-treated cells to determine the level of SMN2 FL mRNA relative to vehicle control. […]

| SMILES | maximal fold induction (Smn protein) | EC (1.5-fold) [1] [µM] | melting point [°C] | EC (1.5-fold) (Smn protein) [µM] |
| --- | --- | --- | --- | --- |
| COc1ccc(-c2cc(=O)c3cc(N4CCNCC4)ccc3o2)cc1 [Cpd 62, 2-(4-methoxyphenyl)-6-(piperazin-1-yl)-4H-chromen-4-one] | 1.2 to 1.35 | 0.1 to 0.3 | 166 to 170 |  |
| COc1ccc(-c2cc(=O)c3cc(N4CCN[C@H](C)C4)ccc3o2)cc1OC [Cpd 23, 2-(3,4-dimethoxyphenyl)-6-[(3R)-3-methylpiperazin-1-yl]-4H-chromen-4-one] | 1.5 to 1.65 | 0.1 to 0.3 | 181 to 183 | 0.3 to 1 |
| CN1CCN(c2ccc3oc(-c4ccccn4)cc(=O)c3c2)CC1 [Cpd 12, 6-(4-methylpiperazin-1-yl)-2-(pyridin-2-yl)-4H-chromen-4-one] | ≤ 1.2 | 3 to 30 | 150 to 152 |  |
| CC(C)Oc1ccc(-c2cc(=O)c3cc(N4CCNCC4)ccc3o2)cc1 [Cpd 49, 6-(piperazin-1-yl)-2-[4-(propan-2-yloxy)phenyl]-4H-chromen-4-one] | ≤ 1.2 | 1 to 3 | 126 to 128 |  |
| Cc1ccn2cc(-c3cc(=O)c4cc(N5C[C@@H](C)N[C@@H](C)C5)ccc4o3)nc2c1 [Cpd 30, 6-[(3R,5S)-3,5-dimethylpiperazin-1-yl]-2-(7-methylimidazo[1,2-a]pyridin-2-yl)-4H-chromen-4-one] | 1.2 to 1.35 | 1 to 3 | 102 to 104 |  |
| O=c1cc(-c2cn3ccccc3n2)oc2ccc(N3CCCNCC3)cc12 [Cpd 18, 6-(1,4-diazepan-1-yl)-2-(imidazo[1,2-a]pyridin-2-yl)-4H-chromen-4-one] | > 1.65 | 3 to 30 | 198 to 200 | 3 to 10 |
| CCOc1ccc(-c2cc(=O)c3cc(N4CCN[C@@H](C)C4)ccc3o2)cc1 [Cpd 42, 2-(4-ethoxyphenyl)-6-[(3S)-3-methylpiperazin-1-yl]-4H-chromen-4-one] | 1.2 to 1.35 | 0.3 to 1 | 93 to 94 |  |
| C[C@@H]1CN(c2ccc3oc(-c4cccnc4)cc(=O)c3c2)CCN1 [Cpd 11, 6-[(3R)-3-methylpiperazin-1-yl]-2-(pyridin-3-yl)-4H-chromen-4-one] | 1.35 to 1.5 | 0.3 to 1 | 148 to 150 | 3 to 10 |
| CCOc1ccc(-c2cc(=O)c3cc(N4CCN[C@H](C)C4)ccc3o2)cc1 [Cpd 44, 2-(4-ethoxyphenyl)-6-[(3R)-3-methylpiperazin-1-yl]-4H-chromen-4-one] | ≤ 1.2 | 1 to 3 | 92 to 94 |  |
| C[C@@H]1CN(c2ccc3oc(-c4nc5ccccc5s4)cc(=O)c3c2)CCN1 [Cpd 33, 2-(1,3-benzothiazol-2-yl)-6-[(3R)-3-methylpiperazin-1-yl]-4H-chromen-4-one] | 1.2 to 1.35 | 1 to 3 | 142 to 144 |  |
| COc1ccc(-c2cc(=O)c3cc(N4C[C@@H](C)N[C@@H](C)C4)ccc3o2)cc1Cl [Cpd 60, 2-(3-chloro-4-methoxyphenyl)-6-[(3R,5S)-3,5-dimethylpiperazin-1-yl]-4H-chromen-4-one] | > 1.65 | 0.1 to 0.3 | 176 to 178 | 1 to 3 |
| COc1ccc(-c2cc(=O)c3cc(N4CCN[C@@H](C)C4)ccc3o2)cc1OC(F)(F)F [Cpd 70, 2-[4-methoxy-3-(trifluoromethoxy)phenyl]-6-[(3S)-3-methylpiperazin-1-yl]-4H-chromen-4-one] | 1.2 to 1.35 | 0.3 to 1 | 142 to 146 |  |
| Cc1cn2cc(-c3cc(=O)c4cc(N5CCNCC5)ccc4o3)nc2cn1 [Cpd 72, 2-(6-methylimidazo[1,2-a]pyrazin-2-yl)-6-(piperazin-1-yl)-4H-chromen-4-one] | > 1.65 | ≤ 0.1 |  | ≤ 0.3 |
| CN1CCN(c2ccc3oc(-c4cccnc4)cc(=O)c3c2)CC1 [Cpd 2, 6-(4-methylpiperazin-1-yl)-2-(pyridin-3-yl)-4H-chromen-4-one] | 1.2 to 1.35 | 3 to 30 |  |  |
| CCOc1ccc(-c2cc(=O)c3cc(N4C[C@@H](C)N[C@@H](C)C4)ccc3o2)cc1 [Cpd 43, 6-[(3R,5S)-3,5-dimethylpiperazin-1-yl]-2-(4-ethoxyphenyl)-4H-chromen-4-one] | ≤ 1.2 | 1 to 3 |  |  |
